Data from patent US10670605B2, “Cysteine reactive probes and uses thereof” (The Scripps Research Institute, priority 2015, dated 2020).
Each block holds one compound with its values, some of them ahead of it.

Key:
Test in all cases: Competitive isoTOP-ABPP in situ (fragment-treated cells)
Assay type in all cases: cell-based
[1] = target: T1, cysteines in MDA-MB-231 and Ramos cells (Homo sapiens, UniProt O95336); conditions: for isoTOP-ABPP reactivity O95336_C32 PGLS: 200 μM, insitu, 231
T1 sequence (O95336 1-258): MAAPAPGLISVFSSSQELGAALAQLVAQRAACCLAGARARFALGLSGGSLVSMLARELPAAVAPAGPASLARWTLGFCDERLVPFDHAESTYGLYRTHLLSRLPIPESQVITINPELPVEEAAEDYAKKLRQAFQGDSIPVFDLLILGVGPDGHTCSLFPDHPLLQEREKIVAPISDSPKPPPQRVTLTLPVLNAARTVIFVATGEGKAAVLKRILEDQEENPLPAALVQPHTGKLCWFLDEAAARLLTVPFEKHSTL

[2] = target: T2, cysteines in MDA-MB-231 and Ramos cells (Homo sapiens, UniProt O95229)
T2 sequence (O95229 1-277): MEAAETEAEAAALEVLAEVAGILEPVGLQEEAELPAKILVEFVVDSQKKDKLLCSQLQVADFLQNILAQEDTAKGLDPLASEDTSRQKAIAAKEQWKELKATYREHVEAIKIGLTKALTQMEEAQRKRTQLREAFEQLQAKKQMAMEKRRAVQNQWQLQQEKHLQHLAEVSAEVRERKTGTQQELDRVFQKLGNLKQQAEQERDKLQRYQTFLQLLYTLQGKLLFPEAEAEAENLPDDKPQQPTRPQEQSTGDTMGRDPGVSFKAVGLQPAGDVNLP

[3] = target: T3, cysteines in MDA-MB-231 and Ramos cells (Homo sapiens, UniProt O14879)
T3 sequence (O14879 1-490): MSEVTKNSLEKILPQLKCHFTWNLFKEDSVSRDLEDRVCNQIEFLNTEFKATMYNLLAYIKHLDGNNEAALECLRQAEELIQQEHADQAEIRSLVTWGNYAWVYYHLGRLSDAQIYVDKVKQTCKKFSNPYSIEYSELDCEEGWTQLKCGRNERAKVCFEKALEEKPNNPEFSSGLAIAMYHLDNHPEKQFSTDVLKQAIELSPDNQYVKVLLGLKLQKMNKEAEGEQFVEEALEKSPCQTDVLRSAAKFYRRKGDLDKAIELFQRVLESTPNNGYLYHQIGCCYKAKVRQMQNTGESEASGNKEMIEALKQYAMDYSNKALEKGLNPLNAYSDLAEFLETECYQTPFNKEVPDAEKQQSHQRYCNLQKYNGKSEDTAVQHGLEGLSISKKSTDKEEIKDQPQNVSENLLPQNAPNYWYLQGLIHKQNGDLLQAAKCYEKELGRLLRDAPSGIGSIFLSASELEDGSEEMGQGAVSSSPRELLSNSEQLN

[4] = target: T4, cysteines in MDA-MB-231 and Ramos cells (Homo sapiens, UniProt P35611)
T4 sequence (P35611 1-737): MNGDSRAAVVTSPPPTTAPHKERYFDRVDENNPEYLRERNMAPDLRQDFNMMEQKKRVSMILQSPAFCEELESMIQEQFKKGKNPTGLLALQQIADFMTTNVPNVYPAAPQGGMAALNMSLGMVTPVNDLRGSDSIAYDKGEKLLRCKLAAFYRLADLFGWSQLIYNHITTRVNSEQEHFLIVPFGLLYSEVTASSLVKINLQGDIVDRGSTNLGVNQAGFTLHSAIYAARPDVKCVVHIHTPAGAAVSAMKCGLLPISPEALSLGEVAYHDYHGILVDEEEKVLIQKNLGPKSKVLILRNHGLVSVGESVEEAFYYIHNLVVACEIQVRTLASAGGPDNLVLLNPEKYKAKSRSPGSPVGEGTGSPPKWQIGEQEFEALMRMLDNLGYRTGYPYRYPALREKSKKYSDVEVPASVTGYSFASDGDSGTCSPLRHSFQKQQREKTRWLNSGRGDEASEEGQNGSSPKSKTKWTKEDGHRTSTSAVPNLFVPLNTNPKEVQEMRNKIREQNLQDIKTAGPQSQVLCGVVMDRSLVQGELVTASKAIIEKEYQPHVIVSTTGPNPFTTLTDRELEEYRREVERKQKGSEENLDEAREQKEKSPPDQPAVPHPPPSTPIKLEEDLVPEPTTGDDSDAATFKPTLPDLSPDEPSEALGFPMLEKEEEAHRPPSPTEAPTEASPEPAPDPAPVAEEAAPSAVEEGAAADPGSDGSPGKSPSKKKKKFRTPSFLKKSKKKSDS

[5] = target: T5, cysteines in MDA-MB-231 and Ramos cells (Homo sapiens, UniProt P31943)
T5 sequence (P31943 1-449): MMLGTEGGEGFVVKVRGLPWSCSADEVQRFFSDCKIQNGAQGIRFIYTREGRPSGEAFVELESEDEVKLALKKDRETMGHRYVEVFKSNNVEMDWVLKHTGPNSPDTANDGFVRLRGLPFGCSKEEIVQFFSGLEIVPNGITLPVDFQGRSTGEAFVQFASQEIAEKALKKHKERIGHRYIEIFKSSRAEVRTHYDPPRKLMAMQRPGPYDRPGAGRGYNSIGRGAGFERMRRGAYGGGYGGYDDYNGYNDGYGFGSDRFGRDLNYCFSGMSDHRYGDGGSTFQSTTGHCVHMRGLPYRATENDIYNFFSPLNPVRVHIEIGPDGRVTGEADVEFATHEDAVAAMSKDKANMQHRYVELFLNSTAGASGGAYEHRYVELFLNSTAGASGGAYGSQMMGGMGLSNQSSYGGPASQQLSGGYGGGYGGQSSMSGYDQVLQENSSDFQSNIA

[6] = target: T6, cysteines in MDA-MB-231 and Ramos cells (Homo sapiens, UniProt Q96AB3)
T6 sequence (Q96AB3 1-205): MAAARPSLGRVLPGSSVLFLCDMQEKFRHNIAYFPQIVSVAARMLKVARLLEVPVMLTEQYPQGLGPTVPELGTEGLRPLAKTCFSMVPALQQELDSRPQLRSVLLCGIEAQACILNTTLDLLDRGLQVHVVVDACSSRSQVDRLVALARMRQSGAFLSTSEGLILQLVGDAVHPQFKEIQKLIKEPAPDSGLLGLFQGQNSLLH

[7] = target: T7, cysteines in MDA-MB-231 and Ramos cells (Homo sapiens, UniProt P23919)
T7 sequence (P23919 1-212): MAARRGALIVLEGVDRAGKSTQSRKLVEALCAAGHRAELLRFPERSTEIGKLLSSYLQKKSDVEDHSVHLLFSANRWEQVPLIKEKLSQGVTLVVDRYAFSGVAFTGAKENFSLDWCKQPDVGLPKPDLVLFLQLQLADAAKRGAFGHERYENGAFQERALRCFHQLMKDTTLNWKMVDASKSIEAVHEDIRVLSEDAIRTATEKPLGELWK

Structure (SMILES): COc1ccc2c(c1)CCCN2C(=O)CCl [compound 2]
isoTOP-ABPP reactivity O95336_C32 PGLS [1]: 14.9 | isoTOP-ABPP reactivity O95229_C54 ZWINT ([2]; 200 μM, insitu, 231): 3.4 | isoTOP-ABPP reactivity O14879_C343 IFIT3 ([3]; 200 μM, insitu, 231): 7.6 | isoTOP-ABPP reactivity P35611_C68 ADD1 ([4]; 200 μM, insitu, 231): 5.8 | isoTOP-ABPP reactivity P31943_C267 HNRNPH1 ([5]; 200 μM, insitu, 231): 3.8 | isoTOP-ABPP reactivity Q96AB3_C114 ISOC2 ([6]; 200 μM, insitu, 231): 1.6

Structure (SMILES): COc1ccc(C2CC(c3cccs3)=NN2C(=O)CCl)cc1 (stereo not shown) [compound 4]
isoTOP-ABPP reactivity O95229_C54 ZWINT ([2]; 100 μM in situ 231): 12.4 | isoTOP-ABPP reactivity O14879_C343 IFIT3 ([3]; 100 μM in situ 231): 6.6 | isoTOP-ABPP reactivity P35611_C68 ADD1 ([4]; 100 μM in situ 231): 4.3 | isoTOP-ABPP reactivity P31943_C267 HNRNPH1 ([5]; 100 μM in situ 231): 6.0 | isoTOP-ABPP reactivity Q96AB3_C114 ISOC2 ([6]; 100 μM in situ 231): 0.8 | isoTOP-ABPP reactivity P23919_C163 DTYMK ([7]; 100 μM in situ 231): 0.4

Structure (SMILES): COc1cc2c(cc1OC)CN(C(=O)CCl)CC2 [compound 8]
isoTOP-ABPP reactivity O95336_C32 PGLS [1]: 20.0 | isoTOP-ABPP reactivity O95229_C54 ZWINT ([2]; 200 μM, insitu, 231): 3.1 | isoTOP-ABPP reactivity O14879_C343 IFIT3 ([3]; 200 μM, insitu, 231): 2.1 | isoTOP-ABPP reactivity P35611_C68 ADD1 ([4]; 200 μM, insitu, 231): 2.4 | isoTOP-ABPP reactivity P31943_C267 HNRNPH1 ([5]; 200 μM, insitu, 231): 5.3 | isoTOP-ABPP reactivity Q96AB3_C114 ISOC2 ([6]; 200 μM, insitu, 231): 4.7 | isoTOP-ABPP reactivity P23919_C117 DTYMK ([7]; 200 μM, insitu, 231): 0.4 | isoTOP-ABPP reactivity P23919_C163 DTYMK ([7]; 200 μM, insitu, 231): 0.6

Structure (SMILES): O=C(CCl)N1CCC(Cc2ccccc2)CC1 [compound 9]
isoTOP-ABPP reactivity O95336_C32 PGLS [1]: 6.7 | isoTOP-ABPP reactivity O95229_C54 ZWINT ([2]; 200 μM, insitu, 231): 3.7 | isoTOP-ABPP reactivity O14879_C343 IFIT3 ([3]; 200 μM, insitu, 231): 17.2 | isoTOP-ABPP reactivity P35611_C68 ADD1 ([4]; 200 μM, insitu, 231): 4.3 | isoTOP-ABPP reactivity P31943_C267 HNRNPH1 ([5]; 200 μM, insitu, 231): 2.1 | isoTOP-ABPP reactivity P23919_C117 DTYMK ([7]; 200 μM, insitu, 231): 7.3

Next, values leading:

isoTOP-ABPP ratio O95229_C54 ([2]; 200 μM, insitu, 231): 2.3 | isoTOP-ABPP ratio O14879_C343 ([3]; 200 μM, insitu, 231): 4.9 | isoTOP-ABPP ratio P35611_C68 ([4]; 200 μM, insitu, 231): 1.9 | isoTOP-ABPP ratio P31943_C267 ([5]; 200 μM, insitu, 231): 4.8 | isoTOP-ABPP ratio P31943_C267 ([5]; 200 μM, insitu, ramos): 2.5 | isoTOP-ABPP ratio Q96AB3_C114 ([6]; 200 μM, insitu, 231): 20.0 | isoTOP-ABPP ratio, cysteine P23919_C117 ([7]; 200 μM, insitu, 231): 0.4
Structure (SMILES): O=C(CCl)N1CCN(S(=O)(=O)c2ccccc2F)CC1 [compound 10]

isoTOP-ABPP ratio O95336_C32 ([1]; 100 μM in situ 231): 0.9 | isoTOP-ABPP ratio O95229_C54 ([2]; 100 μM in situ 231): 1.2 | isoTOP-ABPP ratio O14879_C343 ([3]; 100 μM in situ 231): 0.4 | isoTOP-ABPP ratio P35611_C68 ([4]; 100 μM in situ 231): 0.9 | isoTOP-ABPP ratio P31943_C267 ([5]; 100 μM in situ 231): 0.9 | isoTOP-ABPP ratio Q96AB3_C114 ([6]; 100 μM in situ 231): 0.9 | isoTOP-ABPP ratio, cysteine P23919_C163 ([7]; 100 μM in situ 231): 0.2
Structure (SMILES): Cn1cc(S(=O)(=O)N2CCOCC2)cc1C(=O)NC(=O)CCl [compound 11]
